Test system: T-47D spheroids with HUVEC/MSC, viability
Assay: Anticancer human tumor T-47D cell line growth inhibition [PI3K];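 also: spheroids exposed to agents for seven days before reading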;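 as to viability, T/C: percent of DMSO vehicle control luminescence so 100% = untreated growth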
Conditions: for viability, T/C: stronger effect = lower value
Summary of the method: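 Complex 3D spheroids (cancer cells + endothelial HUVEC + mesenchymal stem cells); drug pairs of targeted agent x inavolisib/alpelisib/duvelisib/copanlisib; half-log series from ~Cmax, max 10 microM if Cmax unknown; endpoint viability.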

[1] = curve of first compound, second compound 0.0316 µM
[2] = curve of first compound, second compound 0.1 µM
[3] = curve of first compound, second compound 0.316 µM
[4] = curve of first compound, second compound 1 µM
[5] = curve of first compound, second compound 3.16 µM
[6] = curve of first compound, second compound 10 µM
[7] = second compound 0.0316 µM, first compound 0.0316 µM
[8] = second compound 0.0316 µM, first compound 0.1 µM
[9] = second compound 0.0316 µM, first compound 0.316 µM
[10] = second compound 0.0316 µM, first compound 1 µM
[11] = second compound 0.1 µM, first compound 0.0316 µM
[12] = second compound 0.1 µM, first compound 0.1 µM
[13] = second compound 0.1 µM, first compound 0.316 µM
[14] = second compound 0.1 µM, first compound 1 µM
[15] = second compound 0.316 µM, first compound 0.0316 µM
[16] = second compound 0.316 µM, first compound 0.1 µM
[17] = second compound 0.316 µM, first compound 0.316 µM
[18] = second compound 0.316 µM, first compound 1 µM
[19] = second compound 1 µM, first compound 0.0316 µM
[20] = second compound 1 µM, first compound 0.1 µM
[21] = second compound 1 µM, first compound 0.316 µM
[22] = second compound 1 µM, first compound 1 µM

## Cn1cnc2c(F)c(Nc3ccc(Br)cc3Cl)c(C(=O)NOCCO)cc21 + Cc1nc(NC(=O)N2CCCC2C(N)=O)sc1-c1ccnc(C(C)(C)C(F)(F)F)c1
[1]
  IC50: > 3 µM
[2]
  IC50: > 3 µM
[3]
  IC50: > 3 µM
[4]
  IC50: > 3 µM
[5]
  IC50: > 3 µM
[6]
  IC50: < 0.00949 µM
Second compound 0.0316 µM, first compound 0.00949 µM
  viability, T/C: 118%
Second compound 0.0316 µM, first compound 0.03 µM
  viability, T/C: 93.1%
Second compound 0.0316 µM, first compound 0.0949 µM
  viability, T/C: 92.6%
Second compound 0.0316 µM, first compound 0.3 µM
  viability, T/C: 85.5%
Second compound 0.0316 µM, first compound 0.949 µM
  viability, T/C: 93.1%
Second compound 0.0316 µM, first compound 3 µM
  viability, T/C: 105%
Second compound 0.1 µM, first compound 0.00949 µM
  viability, T/C: 94.9%
Second compound 0.1 µM, first compound 0.03 µM
  viability, T/C: 96.7%
Second compound 0.1 µM, first compound 0.0949 µM
  viability, T/C: 85.7%
Second compound 0.1 µM, first compound 0.3 µM
  viability, T/C: 96.1%
Second compound 0.1 µM, first compound 0.949 µM
  viability, T/C: 84.9%
Second compound 0.1 µM, first compound 3 µM
  viability, T/C: 92.3%
Second compound 0.316 µM, first compound 0.00949 µM
  viability, T/C: 97.4%
Second compound 0.316 µM, first compound 0.03 µM
  viability, T/C: 102%
Second compound 0.316 µM, first compound 0.0949 µM
  viability, T/C: 92.6%
Second compound 0.316 µM, first compound 0.3 µM
  viability, T/C: 91.2%
Second compound 0.316 µM, first compound 0.949 µM
  viability, T/C: 95.5%
Second compound 0.316 µM, first compound 3 µM
  viability, T/C: 92.3%
Second compound 1 µM, first compound 0.00949 µM
  viability, T/C: 88.2%
Second compound 1 µM, first compound 0.03 µM
  viability, T/C: 81.3%
Second compound 1 µM, first compound 0.0949 µM
  viability, T/C: 96.2%
Second compound 1 µM, first compound 0.3 µM
  viability, T/C: 93.4%
Second compound 1 µM, first compound 0.949 µM
  viability, T/C: 85.8%
Second compound 1 µM, first compound 3 µM
  viability, T/C: 96%
Second compound 3.16 µM, first compound 0.00949 µM
  viability, T/C: 77%
Second compound 3.16 µM, first compound 0.03 µM
  viability, T/C: 67.8%
Second compound 3.16 µM, first compound 0.0949 µM
  viability, T/C: 65.4%
Second compound 3.16 µM, first compound 0.3 µM
  viability, T/C: 65.5%
Second compound 3.16 µM, first compound 0.949 µM
  viability, T/C: 66.8%
Second compound 3.16 µM, first compound 3 µM
  viability, T/C: 72.2%
Second compound 10 µM, first compound 0.00949 µM
  viability, T/C: 36.7%
Second compound 10 µM, first compound 0.03 µM
  viability, T/C: 38.9%
Second compound 10 µM, first compound 0.0949 µM
  viability, T/C: 41.8%
Second compound 10 µM, first compound 0.3 µM
  viability, T/C: 37.7%
Second compound 10 µM, first compound 0.949 µM
  viability, T/C: 39.6%
Second compound 10 µM, first compound 3 µM
  viability, T/C: 36.6%

## CCCS(=O)(=O)Nc1ccc(F)c(C(=O)c2c[nH]c3ncc(-c4ccc(Cl)cc4)cc23)c1F + CC(Nc1ccc2c(c1)OCCn1cc(N3C(=O)OCC3C(F)F)nc1-2)C(N)=O
Curve of first compound, second compound 0.00316 µM
  IC50: 9.16 µM
Curve of first compound, second compound 0.01 µM
  IC50: 9.58 µM
[1]
  IC50: 8.53 µM
[2]
  IC50: 6.95 µM
[3]
  IC50: 5.04 µM
[4]
  IC50: 3.21 µM
Second compound 0.00316 µM, first compound 0.0316 µM
  viability, T/C: 99.3%
Second compound 0.00316 µM, first compound 0.1 µM
  viability, T/C: 87.8%
Second compound 0.00316 µM, first compound 0.316 µM
  viability, T/C: 108%
Second compound 0.00316 µM, first compound 1 µM
  viability, T/C: 79.2%
Second compound 0.00316 µM, first compound 3.16 µM
  viability, T/C: 103%
Second compound 0.00316 µM, first compound 10 µM
  viability, T/C: 46.3%
Second compound 0.01 µM, first compound 0.0316 µM
  viability, T/C: 99%
Second compound 0.01 µM, first compound 0.1 µM
  viability, T/C: 89.1%
Second compound 0.01 µM, first compound 0.316 µM
  viability, T/C: 98.5%
Second compound 0.01 µM, first compound 1 µM
  viability, T/C: 70.7%
Second compound 0.01 µM, first compound 3.16 µM
  viability, T/C: 87.8%
Second compound 0.01 µM, first compound 10 µM
  viability, T/C: 47%
[7]
  viability, T/C: 80.3%
[8]
  viability, T/C: 90.2%
[9]
  viability, T/C: 102%
[10]
  viability, T/C: 97.3%
Second compound 0.0316 µM, first compound 3.16 µM
  viability, T/C: 98.7%
Second compound 0.0316 µM, first compound 10 µM
  viability, T/C: 43%
[11]
  viability, T/C: 83.2%
[12]
  viability, T/C: 82.8%
[13]
  viability, T/C: 97.7%
[14]
  viability, T/C: 91.3%
Second compound 0.1 µM, first compound 3.16 µM
  viability, T/C: 74.2%
Second compound 0.1 µM, first compound 10 µM
  viability, T/C: 38.9%
[15]
  viability, T/C: 69.3%
[16]
  viability, T/C: 79.3%
[17]
  viability, T/C: 66.9%
[18]
  viability, T/C: 70.9%
Second compound 0.316 µM, first compound 3.16 µM
  viability, T/C: 55.8%
Second compound 0.316 µM, first compound 10 µM
  viability, T/C: 41.4%
[19]
  viability, T/C: 48.5%
[20]
  viability, T/C: 55.1%
[21]
  viability, T/C: 69.4%
[22]
  viability, T/C: 51.5%
Second compound 1 µM, first compound 3.16 µM
  viability, T/C: 49.1%
Second compound 1 µM, first compound 10 µM
  viability, T/C: 35.5%

## COc1c(OCCCN2CCOCC2)ccc2c3n(c(=NC(=O)c4cnc(N)nc4)nc12)CCN3
Compound 0.01 µM
  viability, T/C: 99.1% [middle of 8 runs]
Compound 0.0316 µM
  viability, T/C: 70.4% [middle of 8 runs]
Compound 0.1 µM
  viability, T/C: 45.4% [middle of 8 runs]
Compound 0.316 µM
  viability, T/C: 20.5% [middle of 8 runs]
Compound 1 µM
  viability, T/C: 7.09% [middle of 8 runs]
Compound alone, run of 04/25/2023
  IC50: 86.9 nM [middle of 8 runs]

## Cn1cnc2c(F)c(Nc3ccc(Br)cc3Cl)c(C(=O)NOCCO)cc21
Compound 0.00949 µM
  viability, T/C: 98.5% [middle of 4 runs]
Compound 0.0949 µM
  viability, T/C: 95.3% [middle of 4 runs]
Compound 0.3 µM
  viability, T/C: 98.9% [middle of 4 runs]
Compound 0.949 µM
  viability, T/C: 88% [middle of 4 runs]
Compound 3 µM
  viability, T/C: 95.5% [middle of 4 runs]
Curve of compound
  IC50: > 3 µM

## CCN1CCN(Cc2ccc(Nc3ncc(F)c(-c4cc(F)c5nc(C)n(C(C)C)c5c4)n3)nc2)CC1 + Cc1nc(NC(=O)N2CCCC2C(N)=O)sc1-c1ccnc(C(C)(C)C(F)(F)F)c1
[1]
  IC50: > 1 µM
[2]
  IC50: > 1 µM
[3]
  IC50: > 1 µM
[4]
  IC50: > 1 µM
[5]
  IC50: 0.00856 µM
[6]
  IC50: < 0.00316 µM
Second compound 0.0316 µM, first compound 0.00316 µM
  viability, T/C: 111%
Second compound 0.0316 µM, first compound 0.01 µM
  viability, T/C: 87.8%
[7]
  viability, T/C: 89%
[8]
  viability, T/C: 85%
[9]
  viability, T/C: 80.9%
[10]
  viability, T/C: 92.7%
Second compound 0.1 µM, first compound 0.00316 µM
  viability, T/C: 100%
Second compound 0.1 µM, first compound 0.01 µM
  viability, T/C: 73.7%
[11]
  viability, T/C: 82.1%
[12]
  viability, T/C: 72.3%
[13]
  viability, T/C: 80.7%
[14]
  viability, T/C: 85.2%
Second compound 0.316 µM, first compound 0.00316 µM
  viability, T/C: 96%
Second compound 0.316 µM, first compound 0.01 µM
  viability, T/C: 73.4%
[15]
  viability, T/C: 70.2%
[16]
  viability, T/C: 67%
[17]
  viability, T/C: 64.4%
[18]
  viability, T/C: 73.2%
Second compound 1 µM, first compound 0.00316 µM
  viability, T/C: 78.9%
Second compound 1 µM, first compound 0.01 µM
  viability, T/C: 64.5%
[19]
  viability, T/C: 55.9%
[20]
  viability, T/C: 51.9%
[21]
  viability, T/C: 58.9%
[22]
  viability, T/C: 70.3%
Second compound 3.16 µM, first compound 0.00316 µM
  viability, T/C: 61.2%
Second compound 3.16 µM, first compound 0.01 µM
  viability, T/C: 49.2%
Second compound 3.16 µM, first compound 0.0316 µM
  viability, T/C: 44.2%
Second compound 3.16 µM, first compound 0.1 µM
  viability, T/C: 39.3%
Second compound 3.16 µM, first compound 0.316 µM
  viability, T/C: 47.1%
Second compound 3.16 µM, first compound 1 µM
  viability, T/C: 53.2%
Second compound 10 µM, first compound 0.00316 µM
  viability, T/C: 30.5%
Second compound 10 µM, first compound 0.01 µM
  viability, T/C: 26%
Second compound 10 µM, first compound 0.0316 µM
  viability, T/C: 24.5%
Second compound 10 µM, first compound 0.1 µM
  viability, T/C: 27.2%
Second compound 10 µM, first compound 0.316 µM
  viability, T/C: 33.1%
Second compound 10 µM, first compound 1 µM
  viability, T/C: 38.6%

## CC(C)NCC(C(=O)N1CCN(c2ncnc3c2C(C)CC3O)CC1)c1ccc(Cl)cc1 (stereo not given)
Compound 0.0316 µM
  viability, T/C: 99.4% [middle of 4 runs]
Compound 0.1 µM
  viability, T/C: 83.5% [middle of 4 runs]
Compound 0.316 µM
  viability, T/C: 84.9% [middle of 4 runs]
Compound 1 µM
  viability, T/C: 79.4% [middle of 4 runs]
Compound 3.16 µM
  viability, T/C: 64.1% [middle of 4 runs]
Compound 10 µM
  viability, T/C: 52.3% [middle of 4 runs]
Curve of compound
  IC50: > 10 µM
